In patent US20250228239A1, “MOLECULES HAVING PESTICIDAL UTILITY, AND INTERMEDIATES, COMPOSITIONS, AND PROCESSES, RELATED THERETO” (priority 2024, published 2025) one finds YFM rating, pest or weed control and YFM data, which are given here for 18 compounds.

Where two headings read alike, the source gives them in different places.

Holding throughout (assay type): in vivo
Assay [1] concerns Yellow Fever Mosquito (Aedes aegypti, AEDSAE). Conditions: for YFM rating: Table ABC / ABC-DP rating. A digest of the protocol:
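Rating-scale grades reflect larval mortality scored per well after 3 days at room temperature under non-evaporative lids. Larvae (~1 day old, hatched overnight in liver-powder water) were added to six daughter plates per compound, prepared from a 4000 ppm DMSO stock diluted in 90:10 water/acetone.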

Assay [2] concerns Cabbage Looper (Trichoplusia ni, TRIPNI). The experiment in a line: Bioassays on Cabbage Looper (CL), 128-well diet tray assay. The conditions noted are these: Trichoplusia ni. The essentials:
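Percent mortality, averaged across eight replicate wells, after second-instar larvae (1–5 per well) fed for five to seven days on diet dosed at 50 μg/cm^2. Compound was applied in acetone-water 90:10 and dried; trays kept vented at 25° C under 14:10 photoperiod.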

The test system of assay [3] is Beet Armyworm (Spodoptera exigua, LAPHEG). In words: Bioassays on Beet Armyworm (BAW), 128-well diet tray assay. The conditions noted are these: Spodoptera exigua. A digest of the protocol: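 One to five second-instar larvae per well on artificial diet surface-treated with 50 μg/cm^2 test molecule (applied in 90:10 acetone-water, dried), eight wells per compound. Trays held vented at 25° C., 14:10 light-dark for five to seven days; percent mortality averaged over the eight wells.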

Setting [4] is: Cabbage Looper, Table ABC / ABC-DP rating, read-out: CL rating.
[5] abbreviates: Beet Armyworm, Table ABC / ABC-DP rating, read-out: BAW rating.
Setting [6] is: Table ABC: Biological Results, species YFM.
[7] abbreviates: Table ABC: Biological Results, species CL, read-out: CL.
Setting [8] is: Table ABC: Biological Results, species BAW, read-out: BAW.
Where [9] appears, read: Yellow Fever Mosquito, rating class.
Setting [10] is: Cabbage Looper, rating class, read-out: CL.
[11] abbreviates: Beet Armyworm, rating class, read-out: BAW.

With `O=C(NCC(F)(F)F)c1cc(NC(=O)C2C(c3cc(Br)cc(S(F)(F)(F)(F)F)c3)C2(Cl)Cl)ccc1Cl` (stereo not drawn) [F2009, cis-5-(3-(3-Bromo-5-(pentafluoro-λ^6-sulfanyl)phenyl)-2,2-dichiorocyclopropane-1-carboxamido)-2-chloro-N-(2,2,2-trifluoroethyl)benzamide], the YFM rating entry in assay [1] (Yellow Fever Mosquito) is “A (80–100)”. The pest or weed control at 50 µg/cm2 in assay [2] (setting [4]) and in assay [3] (setting [5]) was 50 to 100% each time.

Turning to `CNC(=O)CCNC(=O)c1cc(NC(=O)[C@H]2[C@H](c3cc(Cl)cc(Cl)c3)C2(Cl)Cl)ccc1Cl` (relative stereo) [F2070, trans-2-Chloro-5-(2,2-dichloro-3-(3,5-dichlorophenyl)cyclopropane-1-carboxamido)-N-(3-(methylamino)-3-oxopropyl)benzamide], the YFM rating entry in assay [1] (Yellow Fever Mosquito) is “A (80–100)”. Besides, the pest or weed control at 50 µg/cm2 in assay [2] (setting [4]) and in assay [3] (setting [5]) was 50 to 100% each time.

With `O=C(NCCC(F)(F)F)c1cc(NC(=O)[C@H]2[C@H](c3ccc(F)c(Cl)c3)C2(Cl)Cl)cc(C(F)(F)F)c1Cl` (relative stereo) [F2055, trans-2-Chloro-5-(2,2-dichloro-3-(3-chloro-4-fluorophenyl)cyclopropane-1-carboxamido)-3-(trifluoromethyl)-N-(3,3,3-trifluoropropyl)benzamide], the YFM rating entry in assay [1] (Yellow Fever Mosquito) is on record as “A (80–100)”. The pest or weed control at 50 µg/cm2 in assay [2] (setting [4]) and in assay [3] (setting [5]) was 50 to 100% throughout.

For `O=C(Nc1c(F)ccc(NC(=O)c2cc(NC(=O)[C@H]3[C@H](c4ccc(F)c(C(F)(F)F)c4)C3(Cl)Cl)ccc2Cl)c1F)C(=O)c1ccccc1` [F1298, 2-Chloro-5-((1R,3R)-2,2-dichloro-3-(4-fluoro-3-(trifluoromethyl)phenyl)cyclopropane-1-carboxamido)-N-(2,4-difluoro-3-(2-oxo-2-phenylacetamido)phenyl)benzamide], the YFM result in assay [1] (setting [6]) was “A (80–100)”. The pest or weed control at 50 µg/cm2 in assay [2] (setting [7]) and in assay [3] (setting [8]) was 50 to 100% each time.

On to `CC(F)(F)CNC(=O)c1cc(NC(=O)C2C(c3cc(Cl)cc(Cl)c3)C2(Cl)Cl)cc(F)c1Cl` (stereo not drawn) [F2087], for which, in assay [1] (Yellow Fever Mosquito), the YFM rating result is recorded as “A (80–100)”. In addition, the pest or weed control at 50 µg/cm2 in assay [2] (setting [4]) and in assay [3] (setting [5]) was 50 to 100% throughout.

On to `CC1(C(=O)Nc2c(F)ccc(NC(=O)c3cc(NC(=O)[C@H]4[C@H](c5ccc(F)c(C(F)(F)F)c5)C4(Cl)Cl)ccc3Cl)c2F)CCCO1` (stereo partly drawn) [F1809, N-(3-(2-Chloro-5-((1R,3R)-2,2-dichloro-3-(4-fluoro-3-(trifluoromethyl)phenyl)cyclopropane-1-carboxamido)benzamido)-2,6-difluorophenyl)-2-methyltetrahydrofuran-2-carboxamide], for which, in assay [1] (Yellow Fever Mosquito), the YFM rating result is given as “A (80–100)”. Further, the pest or weed control at 50 µg/cm2 in assay [2] (setting [4]) and in assay [3] (setting [5]) was 50 to 100% throughout.

Consider `Nc1ccc(NC(=O)c2cc(NC(=O)[C@H]3[C@H](c4ccc(F)c(Cl)c4)C3(Cl)Cl)ccc2Cl)cc1C(F)(F)F` (relative stereo) [F1390, trans-N-(4-Amino-3-(trifluoromethyl)phenyl)-2-chloro-5-(2,2-dichloro-3-(3-chloro-4-fluorophenyl)cyclopropane-1-carboxamido)benzamide], for which, in assay [1] (setting [6]), the YFM entry is given as “A (80–100)”. The pest or weed control at 50 µg/cm2 in assay [2] (setting [7]) and in assay [3] (setting [8]) was 50 to 100% each time.

`CC(=O)Nc1cc(NC(=O)c2cc(NC(=O)[C@H]3[C@H](c4cc(Cl)c(Cl)c(Cl)c4)C3(Cl)Cl)ccc2F)c(F)cc1F` [F1553, N-(5-Acetamido-2,4-difluorophenyl)-5-((1R,3R)-2,2-dichloro-3-(3,4,5-trichlorophenyl)cyclopropane-1-carboxamido)-2-fluorobenzamide]: the YFM entry in assay [1] (setting [9]) was “A (80–100)”. Moreover, the pest or weed control at 50 µg/cm2 in assay [2] (setting [10]) and in assay [3] (setting [11]) was 50 to 100% each time.

Consider `C=CCN(C(=O)C(F)F)c1c(F)ccc(NC(=O)c2cc(NC(=O)[C@H]3[C@H](c4ccc(F)c(C(F)(F)F)c4)C3(Cl)Cl)ccc2Cl)c1F` [F1482, N-(3-(N-Allyl-2,2-difluoroacetamido)-2,4-difluorophenyl)-2-chloro-5-((1R,3R)-2,2-dichloro-3-(4-fluoro-3-(trifluoromethyl)phenyl)cyclopropane-1-carboxamido)benzamide], for which, in assay [1] (setting [9]), the YFM result is “A (80–100)”. Also, the pest or weed control at 50 µg/cm2 in assay [2] (setting [10]) and in assay [3] (setting [11]) was 50 to 100% in each case.

Regarding `O=C(Nc1cc(NC(=O)C(F)(F)F)c(F)cc1F)c1cc(NC(=O)[C@H]2[C@H](c3ccc(F)c(C(F)(F)F)c3)C2(Cl)Cl)ccc1F` [F1557, 5-((1R,3R)-2,2-Dichloro-3-(4-fluoro-3-(trifluoromethyl)phenyl)cyclopropane-1-carboxamido)-N-(2,4-difluoro-5-(2,2,2-trifluoroacetamido)phenyl)-2-fluorobenzamide], the YFM result in assay [1] (setting [9]) is given as “A (80–100)”. Also, the pest or weed control at 50 µg/cm2 in assay [2] (setting [10]) and in assay [3] (setting [11]) was 50 to 100% throughout.

As for `O=C(Nc1ccc(F)c(NC(=O)C(F)F)c1F)c1cc(NC(=O)[C@H]2[C@H](c3cccc(I)c3)C2(Cl)Cl)ccc1Cl` (relative stereo) [F1281, trans-2-chloro-5-(2,2-dichloro-3-(3-iodophenyl)cyclopropane-1-carboxamido)-N-(3-(2,2-difluoroacetamido)-2,4-difluorophenyl)benzamide], the YFM result in assay [1] (setting [6]) is on record as “A (80–100)”. Further, the pest or weed control at 50 µg/cm2 in assay [2] (setting [7]) and in assay [3] (setting [8]) was 50 to 100% in each case.

Regarding `CC(=O)Nc1ccc(NC(=O)c2cc(NC(=O)[C@H]3[C@H](c4ccc(F)c(Cl)c4)C3(Cl)Cl)cc(F)c2Cl)cc1` (relative stereo) [F1154, trans-N-(4-Acetamidophenyl)-2-chloro-5-(2,2-dichloro-3-(3-chloro-4-fluorophenyl)cyclopropane-1-carboxamido)-3-fluorobenzamide], the YFM result in assay [1] (setting [6]) is given as “A (80–100)”. The pest or weed control at 50 µg/cm2 in assay [2] (setting [7]) and in assay [3] (setting [8]) was 50 to 100% each time.

Take `CC(C)COC(C)C(=O)Nc1c(F)ccc(NC(=O)c2cc(NC(=O)[C@H]3[C@H](c4ccc(F)c(C(F)(F)F)c4)C3(Cl)Cl)ccc2Cl)c1F` (stereo partly drawn) [F1746, 2-Chloro-5-((1R,3R)-2,2-dichloro-3-(4-fluoro-3-(trifluoromethyl)phenyl)cyclopropane-1-carboxamido)-N-(2,4-difluoro-3-(2-isobutoxypropanamido)phenyl)benzamide]: the YFM entry in assay [1] (setting [9]) was “A (80–100)”. Also, the pest or weed control at 50 µg/cm2 in assay [2] (setting [10]) and in assay [3] (setting [11]) was 50 to 100% throughout.

In the case of `O=C(NNc1ncccc1Cl)c1cc(NC(=O)[C@H]2[C@H](c3cc(Cl)cc(Cl)c3)C2(Cl)Cl)ccc1Cl` (relative stereo) [F2505, trans-2,2-Dichloro-N-(4-chloro-3-(2-(3-chloropyridin-2-yl)hydrazine-1-carbonyl)phenyl)-3-(3,5-dichlorophenyl)cyclopropane-1-carboxamide], in assay [1] (Yellow Fever Mosquito), the YFM rating entry is recorded as “A (80–100)”. In addition, the pest or weed control at 50 µg/cm2 in assay [2] (setting [4]) and in assay [3] (setting [5]) was 50 to 100% in each case.

Consider `CCCCC(=O)Nc1c(F)ccc(NC(=O)c2cc(NC(=O)[C@H]3[C@H](c4ccc(F)c(C(F)(F)F)c4)C3(Cl)Cl)ccc2Cl)c1F` [F1372, 2-Chloro-5-((1R,3R)-2,2-dichloro-3-(4-fluoro-3-(trifluoromethyl)phenyl)cyclopropane-1-carboxamido)-N-(2,4-difluoro-3-pentanamidophenyl)benzamide], for which the YFM result in assay [1] (setting [6]) is “A (80–100)”. In addition, the pest or weed control at 50 µg/cm2 in assay [2] (setting [7]) and in assay [3] (setting [8]) was 50 to 100% each time.

As to `O=C(Nc1ccc(F)c(NC(=O)C(Cl)Cl)c1F)c1cc(NC(=O)[C@H]2[C@H](c3ccc(F)c(C(F)(F)F)c3)C2(Cl)Cl)ccc1Cl` [F1174, 2-Chloro-5-((1R,3R)-2,2-dichloro-3-(4-fluoro-3-(trifluoromethyl)phenyl)cyclopropane-1-carboxamido)-N-(3-(2,2-dichloroacetamido)-2,4-difluorophenyl)benzamide], the YFM entry in assay [1] (setting [6]) is on record as “A (80–100)”. Moreover, the pest or weed control at 50 µg/cm2 in assay [2] (setting [7]) and in assay [3] (setting [8]) was 50 to 100% in each case.

With `C=Cc1c(F)ccc(NC(=O)c2cc(NC(=O)[C@H]3[C@H](c4cc(Cl)cc(Cl)c4)C3(Cl)Cl)ccc2Cl)c1F` (relative stereo) [F1314, trans-2-Chloro-5-(2,2-dichloro-3-(3,5-dichlorophenyl)cyclopropane-1-carboxamido)-N-(2,4-difluoro-3-vinylphenyl)benzamide], the YFM entry in assay [1] (setting [6]) is reported as “A (80–100)”. The pest or weed control at 50 µg/cm2 in assay [2] (setting [7]) and in assay [3] (setting [8]) was 50 to 100% each time.

As for `O=C(COC(F)(F)F)Nc1c(F)ccc(NC(=O)c2cc(NC(=O)[C@H]3[C@H](c4cccc(C(F)(F)F)c4)C3(Cl)Cl)ccc2Cl)c1F` [F1774, 2-Chloro-5-((1R,3R)-2,2-dichloro-3-(3-(trifluoromethyl)phenyl)cyclopropane-1-carboxamido)-N-(2,4-difluoro-3-(2-(trifluoromethoxy)acetamido)phenyl)benzamide], the YFM rating result in assay [1] (Yellow Fever Mosquito) is given as “A (80–100)”. For the same compound, the pest or weed control at 50 µg/cm2 in assay [2] (setting [4]) and in assay [3] (setting [5]) was 50 to 100% each time.
